Assay results as given in PubChem BioAssay (NCI).
Where “and” joins values, the source holds several entries; their conditions need not be identical. Identical values can stand only once.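 Five compound concentrations were applied to cells in 96-well plates for 48 hours; endpoints were derived by simple linear interpolation of the resulting dose-response curve. GI50 is the concentration that inhibits growth by half. TGI denotes the concentration required for complete inhibition of growth.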

Tests used:
Assay in all cases: NCI-60 cell line screen, 48 h
NCI/ADR-RES ovarian = tested on: NCI/ADR-RES ovarian
SNB-19 CNS = tested on: SNB-19 CNS
BT-549 breast = tested on: BT-549 breast
OVCAR-5 ovarian = tested on: OVCAR-5 ovarian
SR leukemia = tested on: SR leukemia
OVCAR-3 ovarian = tested on: OVCAR-3 ovarian
SN12C renal = tested on: SN12C renal
MDA-MB-435 = tested on: MDA-MB-435
UO-31 renal = tested on: UO-31 renal
M14 melanoma = tested on: M14 melanoma

| SMILES | TGI (NCI/ADR-RES ovarian) | TGI (SNB-19 CNS) | TGI (BT-549 breast) [µM] | TGI (OVCAR-5 ovarian) [µM] | TGI (SR leukemia) | TGI (OVCAR-3 ovarian) [µM] | TGI (SN12C renal) | TGI (MDA-MB-435) [µM] | TGI (UO-31 renal) | TGI (M14 melanoma) | GI50 (NCI/ADR-RES ovarian) [µM] | GI50 (SNB-19 CNS) [µM] | GI50 (BT-549 breast) [µM] | GI50 (OVCAR-5 ovarian) [µM] | GI50 (SR leukemia) [µM] | GI50 (OVCAR-3 ovarian) [µM] | GI50 (SN12C renal) [µM] | GI50 (MDA-MB-435) [µM] | GI50 (UO-31 renal) [µM] | GI50 (M14 melanoma) [µM] |
| --- | --- | --- | --- | --- | --- | --- | --- | --- | --- | --- | --- | --- | --- | --- | --- | --- | --- | --- | --- | --- |
| O=C1/C(=N/N=C(c2ccccc2)c2ccccc2)c2ccccc2-c2ccccc21 | > 100 µM | > 100 µM | > 100 | > 100 | > 100 µM | > 100 | > 100 µM | > 100 | > 100 µM | > 100 µM |  |  |  |  |  |  |  |  |  |  |
| COc1ccc(/C=C(/C(=O)N2CCN(c3ccc(C)cc3)CC2)c2cc(OC)c(OC)c(OC)c2)cc1N | 21.7 µM | > 100 µM | 4.79 | > 100 | > 100 µM | 0.921 | > 100 µM |  | > 35.3 µM | 2.48 µM | 0.293 | 0.426 | 0.199 | 0.715 | 0.238 | 0.239 | 0.483 | 0.108 | 0.242 | 0.247 |
| COc1ccc2c(c1)[n+]([O-])c(/C(C)=N/NC(N)=S)c(C)[n+]2[O-] | 96.5 µM | > 100 µM | > 100 | > 100 | 61.5 µM | > 95.7 | > 100 µM | > 100 | > 100 µM | > 100 µM |  |  |  |  |  |  |  |  |  |  |
| O=c1ncc(I)c[nH]1 | > 100 µM | > 100 µM | > 100 | > 100 | > 100 µM | > 100 | > 100 µM | > 100 | > 100 µM | > 100 µM | > 100 | > 100 | > 100 | > 100 | > 100 | > 100 | > 100 | > 100 | > 100 | > 100 |
| CCCCCCCC(=O)SCC/C=C/[C@@H]1CC(=O)NCc2cccc(n2)C2=N[C@@](C)(CS2)C(=O)N[C@@H](C(C)C)C(=O)O1 | > 33.3 µM | > 33.3 µM | > 33.3 | > 33.3 | > 33.3 µM | 1.07 | > 33.3 µM | > 12.5 | 1.03 µM | > 33.3 µM | 0.319 | 0.191 | 0.19 | 0.0254 | 0.0623 | 0.0877 | 0.145 | 0.0292 | 0.0647 | 0.0348 |
| CCC1CCC2C3CC=C4CC(OC(C)=O)C(N)CC4(C)C3CCC12C (configuration not stated) | 14.2 µM | 6.49 µM | 10.6 | 14.1 | 6.07 µM | 10.5 | 9.87 µM | 5.66 | 9.68 µM | 3.6 µM |  |  |  |  |  |  |  |  |  |  |
| CS(=O)(=O)OCCCCOS(C)(=O)=O | 250 µM and > 1000 µM | 233 µM and > 1000 µM | > 1000 | > 1000 | 223 µM and > 1000 µM | > 1000 | 250 µM and > 1000 µM | > 1000 | 250 µM and > 1000 µM | 250 µM and > 1000 µM | > 1000 | > 862 | > 250 | > 698 | 100 | > 1000 | 623 | > 250 | > 886 | 765 |
| CCCCCCCCCCCCCCCCCc1cc(Cl)nc(Cl)n1 | > 100 µM | > 100 µM | > 100 | > 100 | > 100 µM | > 100 | > 100 µM | > 100 | > 100 µM | > 100 µM |  |  |  |  |  |  |  |  |  |  |
| CCN(CC)c1ccc(CNc2cc(C)nc3ccc(OC)cc23)cc1 | 14.3 µM | 16.3 µM | 10.7 | 18.6 | 4.56 µM | 12.8 | 20.6 µM | 3.38 | 6.23 µM | 3.7 µM | 3.08 | 3.98 | 3.22 | 5.37 | 1.87 | 3.12 | 5.33 | 1.67 | 1.75 | 1.89 |
| COc1ccc2nc(-c3ccc(Cl)cc3)cc(-c3nnc(SCC(=O)Nc4ccc(/C(C)=N\O)cc4)o3)c2c1 | 3.75 µM | 3.09 µM | 18.9 | 10.2 | > 50 µM | 5.47 | 7.29 µM | 4.08 | 20.5 µM | 7.58 µM | 1.29 | 1.18 | 3.7 | 2.06 | 1.72 | 1.58 | 1.8 | 1.26 | 3.26 | 1.81 |
| Cc1ccccc1NC(=O)N/C(N)=N/c1nc(C)c(C)s1 | 15.8 µM | 52.7 µM | > 100 | > 100 | > 100 µM | 13.5 | > 100 µM | 0.468 | > 100 µM | > 100 µM | 0.089 | 0.283 | 1.14 | 0.912 | 0.0438 | 0.17 | 1.23 | 0.0332 | 1.1 | 0.121 |
| COc1ccccc1CN=C1NC(=O)/C(=C/c2ccc3ncccc3c2)S1 | > 25 µM | > 25 µM | 14 | > 25 | > 17.9 µM | 24.9 | > 25 µM | > 21.3 | > 21.7 µM | > 25 µM | 11.2 | 4.01 | 5.18 | 16.3 | 1.87 | 7.13 | 7.8 | 6.02 | 7.37 | 14.5 |
| C=C(C)[C@@H]1CC[C@]2(C(=O)N3CCN(C)CC3)CC[C@]3(C)[C@H](CC[C@@H]4[C@@]5(C)C/C(=C/c6ccncc6)[C@H](O)C(C)(C)[C@@H]5CC[C@]43C)[C@@H]12 | 23.2 µM | > 100 µM | 24.7 | 26.8 | 10.2 µM | 17.2 | 22.3 µM | 33.9 | 21 µM | 12.6 µM | 4.81 | 8.68 | 4.33 | 6.04 | 2.72 | 4.82 | 6.22 | 8.29 | 5.37 | 3.44 |
| COc1cc(/C=C/C(=O)c2ccc(F)cc2)ccc1OCCCCOc1cc2c(cc1OC)C(=O)N1CCCC1C=N2 (configuration not stated) | > 26.4 µM | > 19.9 µM |  | > 26.6 | 0.841 µM | 2 | 15.9 µM | 8.01 |  | 4.08 µM | 0.936 | 1.04 | 0.855 | 3.85 | 0.188 | 0.808 | 1.68 | 2.71 | 0.891 | 2.11 |
| C/C(=N\N)C(CN1CCCCC1)C(c1ccccc1)c1c(O)c2ccccc2oc1=O (configuration not stated) | > 100 µM | > 100 µM | > 100 | > 100 | > 100 µM | > 100 | > 100 µM | > 100 | > 100 µM | > 100 µM |  |  |  |  |  |  |  |  |  |  |
